US10745382B2 (BRISTOL-MYERS SQUIBB COMPANY, priority 2015, dated 2020)

Target: T1, PD-1/PD-L1 (Homo sapiens, UniProt Q9NZQ7)
T1 construct: made in house; host or cells: HEK293T
Assay: PD-1/PD-L1 Homogenous Time-Resolved Fluorescence (HTRF) binding assay
Conditions: PD-L1-His 10 nM, PD-1-Ig 20 nM; value given as range class; read-out: Range or IC50
In short: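 Binding measured in dPBS with 0.1% BSA and 0.05% Tween-20, detected by HTRF with europium cryptate anti-Ig (1 nM final) and APC anti-His (20 nM final) added over the binding reaction. Counter-assays used human PD-1-Ig/PD-L2-His (20 and 5 nM) and CD80-His/PD-L1-Ig (100 and 10 nM).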

T1 sequence (Q9NZQ7 with tags, fused parts or gaps): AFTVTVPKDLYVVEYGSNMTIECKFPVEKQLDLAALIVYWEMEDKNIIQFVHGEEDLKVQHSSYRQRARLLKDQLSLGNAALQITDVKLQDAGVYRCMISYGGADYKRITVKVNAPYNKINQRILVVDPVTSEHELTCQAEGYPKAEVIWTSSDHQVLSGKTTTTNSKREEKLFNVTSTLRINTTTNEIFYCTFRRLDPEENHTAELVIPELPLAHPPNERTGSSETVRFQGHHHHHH

Row | IC50 [µM] | Compound
1 | 0.01 to 0.1 | Cc1c(COc2ccc(CN3CCCC[C@H]3C(=O)O)c(C)c2Cl)cccc1-c1cccc(OCCCN2CC[C@@H](O)C2)c1C [Example 4524, (S)-1-(3-chloro-4-((3′-(3-((R)-3-hydroxypyrrolidin-1-yl)propoxy)-2,2′-dimethyl-[1,1′-biphenyl]-3-yl)methoxy)-2-methylbenzyl)piperidine-2-carboxylic Acid]
2 | 0.00021 to 0.01 | Cc1c(COc2cc(OCc3cncc(C#N)c3)c(CNC(CO)CO)cc2Cl)cccc1-c1cccc(OCCCNC(CO)CO)c1Cl [Example 2042, 5-((4-chloro-5-((2′-chloro-3′-(3-((1,3-dihydroxypropan-2-yl)amino)propoxy)-2-methyl-[1,1′-biphenyl]-3-yl)methoxy)-2-(((1,3-dihydroxypropan-2-yl)amino)methyl)phenoxy)methyl)nicotinonitrile]
3 | 0.00021 to 0.01 | Cc1c(COc2cc(OCc3cncc(C#N)c3)c(CNC(C)(CO)CO)cc2Cl)cccc1-c1cccc(CNCCN2CCOCC2)c1Cl [Example 2092, 5-((4-chloro-5-((2′-chloro-2-methyl-3′-(((2-morpholinoethyl)amino)methyl)-[1,1′-biphenyl]-3-yl)methoxy)-2-(((1,3-dihydroxy-2-methylpropan-2-yl)amino)methyl)phenoxy)methyl)nicotinonitrile]
4 | 0.01 to 0.1 | C=CC(=O)NCCNCc1cc(Cl)c(OCc2cccc(-c3cccc(OCCCN4CC[C@@H](O)C4)c3C)c2C)cc1OCc1cncc(S(C)(=O)=O)c1 [Example 1034, (R)—N-(2-((5-chloro-4-((3′-(3-(3-hydroxypyrrolidin-1-yl)propoxy)-2,2′-dimethyl-[1,1′-biphenyl]-3-yl)methoxy)-2-((5-(methylsulfonyl)pyridin-3-yl)methoxy)benzyl)amino)ethyl)acrylamide]
5 | 0.00021 to 0.01 | N#Cc1cncc(COc2cc(OCc3cccc(-c4cccc(OCCCNC[C@H](O)CO)c4Cl)c3Cl)c(Cl)cc2CN2CCCC[C@H]2C(=O)O)c1 [Example 2049, (S)-1-(5-chloro-2-((5-cyanopyridin-3-yl)methoxy)-4-((2,2′-dichloro-3′-(3-(((S)-2,3-dihydroxypropyl)amino)propoxy)-[1,1′-biphenyl]-3-yl)methoxy)benzyl)piperidine-2-carboxylic Acid]
6 | 0.00021 to 0.01 | Cc1c(COc2cc(OCc3cncc(C#N)c3)c(CN[C@@](C)(CO)C(=O)O)cc2Cl)cccc1-c1cccc(OCCCN2CCC(F)(F)C2)c1C [Example 4119, (S)-2-((5-chloro-2-((5-cyanopyridin-3-yl)methoxy)-4-((3′-(3-(3,3-difluoropyrrolidin-1-yl)propoxy)-2,2′-dimethyl-[1,1′-biphenyl]-3-yl)methoxy)benzyl)amino)-3-hydroxy-2-methylpropanoic Acid]
7 | 0.00021 to 0.01 | Cc1c(COc2cc(OCc3cncc(C#N)c3)c(CN3CCCC[C@H]3C(=O)O)cc2Cl)cccc1-c1cccc(OCCCN2CCO[C@@H](CO)C2)c1C [Example 3047, (S)-1-(5-chloro-2-((5-cyanopyridin-3-yl)methoxy)-4-((3′-(3-((R)-2-(hydroxymethyl)morpholino)propoxy)-2,2′-dimethyl-[1,1′-biphenyl]-3-yl)methoxy)benzyl)piperidine-2-carboxylic Acid]
8 | 0.00021 to 0.01 | Cc1c(COc2cc(OCc3cncc(S(C)(=O)=O)c3)c(CN3CCCC[C@H]3C(=O)O)cc2Cl)cccc1-c1cccc(OCCCN2C[C@H](O)C[C@H]2C(=O)O)c1Cl [Example 1081, (S)-1-(4-((3′-(3-((2S,4R)-2-carboxy-4-hydroxypyrrolidin-1-yl)propoxy)-2′-chloro-2-methyl-[1,1′-biphenyl]-3-yl)methoxy)-5-chloro-2-((5-(methylsulfonyl)pyridin-3-yl)methoxy)benzyl)piperidine-2-carboxylic Acid]
9 | 0.00021 to 0.01 | Cc1c(COc2cc(OCc3cncc(C#N)c3)c(CN[C@@](C)(CO)C(=O)O)cc2Cl)cccc1-c1cccc(OCC2(CN3CC[C@@H](O)C3)CC2)c1C [Example 2348, (S)-2-((5-chloro-2-((5-cyanopyridin-3-yl)methoxy)-4-((3′-((1-(((R)-3-hydroxypyrrolidin-1-yl)methyl)cyclopropyl)methoxy)-2,2′-dimethyl-[1,1′-biphenyl]-3-yl)methoxy)benzyl)amino)-3-hydroxy-2-methylpropanoic Acid]
10 | 0.00021 to 0.01 | Cc1c(OCCCN2CCCCC2)cccc1-c1cccc(COc2cc(OCc3cncc(C#N)c3)c(CNC(CO)CO)cc2Cl)c1Cl [Example 2301, 5-((4-chloro-5-((2-chloro-2′-methyl-3′-(3-(piperidin-1-yl)propoxy)-[1,1′-biphenyl]-3-yl)methoxy)-2-(((1,3-dihydroxypropan-2-yl)amino)methyl)phenoxy)methyl)nicotinonitrile]
11 | 0.00021 to 0.01 | Cc1c(COc2cc(OCc3cncc(C#N)c3)c(CN[C@H](C(=O)O)c3ccccc3)cc2Cl)cccc1-c1cccc(OCCCN2CC[C@@H](O)C2)c1C [Example 4156, (S)-2-((5-chloro-2-((5-cyanopyridin-3-yl)methoxy)-4-((3′-(3-((R)-3-hydroxypyrrolidin-1-yl)propoxy)-2,2′-dimethyl-[1,1′-biphenyl]-3-yl)methoxy)benzyl)amino)-2-phenylacetic Acid]
12 | 0.1 to 2 | CCNC(=O)c1cccc(-c2cccc(COc3cc(OCc4cncc(C#N)c4)c(CN4CCC[C@H]4C(=O)O)cc3Cl)c2C)c1C [Example 4007, (5-chloro-2-((5-cyanopyridin-3-yl)methoxy)-4-((3′-(ethylcarbamoyl)-2,2′-dimethyl-[1,1′-biphenyl]-3-yl)methoxy)benzyl)-L-proline]
13 | 0.00021 to 0.01 | Cc1c(OCCCN2CC[C@@H](O)C2)cccc1-c1cccc(COc2cc(OCc3cncc(C#N)c3)c(CNC(C)(CO)CO)cc2Cl)c1Cl [Example 2305, (R)-5-((4-chloro-5-((2-chloro-3′-(3-(3-hydroxypyrrolidin-1-yl)propoxy)-2′-methyl-[1,1′-biphenyl]-3-yl)methoxy)-2-(((1,3-dihydroxy-2-methylpropan-2-yl)amino)methyl)phenoxy)methyl)nicotinonitrile]
14 | 0.00021 to 0.01 | Cc1c(COc2cc(OCc3cncc(C#N)c3)c(CN(C)[C@@H](C)C(=O)O)cc2Cl)cccc1-c1cccc(OCCCN2CC[C@@H](O)C2)c1C [Example 4132, N-(5-chloro-2-((5-cyanopyridin-3-yl)methoxy)-4-((3′-(3 ((R)-3-hydroxypyrrolidin-1-yl)propoxy)-2,2′-dimethyl-[1,1′-biphenyl]-3-yl)methoxy)benzyl)-N-methyl-L-alanine]
15 | 0.00021 to 0.01 | Cc1c(COc2cc(OCc3cncc(C#N)c3)c(CNC(C)(CO)CO)cc2Cl)cccc1-c1cccc(OCC(O)CN2CC[C@@H](O)C2)c1Cl (stereo partly drawn) [Example 2086, 5-((4-chloro-5-((2′-chloro-3′-(2-hydroxy-3-((R)-3-hydroxypyrrolidin-1-yl)propoxy)-2-methyl-[1,1′-biphenyl]-3-yl)methoxy)-2-(((1,3-dihydroxy-2-methylpropan-2-yl)amino)methyl)phenoxy)methyl)nicotinonitrile]
16 | 0.00021 to 0.01 | Cc1c(COc2cc(OCc3cncc(C#N)c3)c(CN(C)C(CO)CO)cc2Cl)cccc1-c1cccc(OCCCNC[C@H](O)CO)c1Cl [Example 2057, (S)-5-((4-chloro-5-((2′-chloro-3′-(3-((2,3-dihydroxypropyl)amino)propoxy)-2-methyl-[1,1′-biphenyl]-3-yl)methoxy)-2-(((1,3-dihydroxypropan-2-yl)(methyl)amino)methyl)phenoxy)methyl)nicotinonitrile]
17 | 0.00021 to 0.01 | Cc1c(COc2cc(OCc3cncc(C#N)c3)c(CN3CCCC[C@H]3C(=O)O)cc2Cl)cccc1-c1cccc(OC[C@H]2CCN(CC(O)CO)C2)c1Cl (stereo partly drawn) [Example 2120, (2S)-1-(5-chloro-4-((2′-chloro-3′-(((3S)-1-(2,3-dihydroxypropyl)pyrrolidin-3-yl)methoxy)-2-methyl-[1,1′-biphenyl]-3-yl)methoxy)-2-((5-cyanopyridin-3-yl)methoxy)benzyl)piperidine-2-carboxylic Acid]
18 | 0.00021 to 0.01 | Cc1c(OCCCN2CC[C@@H](O)C2)cccc1-c1cccc(COc2cc(OCC3CC3(F)F)c(CNC(CO)CO)cc2Cl)c1Cl (stereo partly drawn) [Example 2320, 2-((5-chloro-4-((2-chloro-3′-(3-((R)-3-hydroxypyrrolidin-1-yl)propoxy)-2′-methyl-[1,1′-biphenyl]-3-yl)methoxy)-2-((2,2-difluorocyclopropyl)methoxy)benzyl)amino)propane-1,3-diol]
19 | 0.00021 to 0.01 | Cc1c(COc2cc(OCc3cncc(C#N)c3)c(CN[C@H](CO)C(=O)O)cc2Cl)cccc1-c1cccc(OCCCN2CCC(O)CC2)c1C [Example 1060, (R)-2-((5-chloro-2-((5-cyanopyridin-3-yl)methoxy)-4-((3′-(3-(4-hydroxypiperidin-1-yl)propoxy)-2,2′-dimethyl-[1,1′-biphenyl]-3-yl)methoxy)benzyl)amino)-3-hydroxypropanoic Acid]
20 | 0.1 to 2 | Cc1c(COc2cc(OCc3cncc(C#N)c3)c(CN3CCCC[C@H]3C(=O)O)cc2Cl)cccc1-c1cccc(C(=O)N2CCN(C)CC2)c1C [Example 3059, (S)-1-(5-chloro-2-((5-cyanopyridin-3-yl)methoxy)-4-((2,2′-dimethyl-3′-(4-methylpiperazine-1-carbonyl)-[1,1′-biphenyl]-3-yl)methoxy)benzyl)piperidine-2-carboxylic Acid]

Row | Compound | IC50 [µM]
21 | Cc1cc(OCCCCN2CC[C@@H](O)C2)ccc1-c1cccc(COc2cc(OCc3cncc(C#N)c3)c(CN3CCCC[C@H]3C(=O)O)cc2Cl)c1C [Example 1093, (S)-1-(5-chloro-2-((5-cyanopyridin-3-yl)methoxy)-4-((4′-(4-((R)-3-hydroxypyrrolidin-1-yl)butoxy)-2,2′-dimethyl-[1,1′-biphenyl]-3-yl)methoxy)benzyl)piperidine-2-carboxylic Acid] | 0.00021 to 0.01
